Data: PubChem BioAssay AID192 (DTP/NCI, 2004)
Inconclusive results and toxic doses are left out.

System: BDF1 mice, B16 melanoma ip, median survival T/C
Assay: NCI In Vivo Anticancer Drug Screen. Data for tumor model B16 Melanoma (intraperitoneal) in B6D2F1 (BDF1) mice
Settings: endpoint: median survival time, higher = longer survival
Summary of the method: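 In this screen, activity was judged from survival or tumor size in treated versus vehicle-treated tumor-bearing mice, reported as T/C.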

[1] = dose: 6.25 mg/kg/injection, schedule: Q01DX009 (ip), vehicle: water
[2] = dose: 12.5 mg/kg/injection, schedule: Q01DX009 (ip), vehicle: water
[3] = dose: 50.0 mg/kg/injection, schedule: Q01DX009 (ip), vehicle: water
[4] = dose: 6.25 mg/kg/injection, schedule: Q01DX009 (ip), vehicle: saline
[5] = dose: 12.5 mg/kg/injection, schedule: Q01DX009 (ip), vehicle: saline
[6] = dose: 50.0 mg/kg/injection, schedule: Q01DX009 (ip), vehicle: saline
[7] = dose: 50.0 mg/kg/injection, schedule: Q04DX003 (ip), vehicle: Klucel (hydroxypropylcellulose) (HPC)
[8] = dose: 100.0 mg/kg/injection, schedule: Q01DX009 (ip), vehicle: Klucel (hydroxypropylcellulose) (HPC)
[9] = dose: 200.0 mg/kg/injection, schedule: Q01DX009 (ip), vehicle: Klucel (hydroxypropylcellulose) (HPC)
[10] = dose: 200.0 mg/kg/injection, schedule: Q04DX003 (ip), vehicle: Klucel (hydroxypropylcellulose) (HPC)

With CC1(O)C=CC(=O)C=C1 the T/C [1] was 110 % of control, the T/C [2] was 116 % of control and the T/C (dose: 25.0 mg/kg/injection, schedule: Q01DX009 (ip), vehicle: water) was 120 % of control. The T/C [3] was 114 % of control.

In the case of CC#CC#C/C=C1\OC2(CCCCO2)C(O)C1OC(=O)CC(C)C (stereo not drawn), the T/C (dose: 10.0 mg/kg/injection, schedule: Q01DX009 (ip), vehicle: Klucel (hydroxypropylcellulose) (HPC)) is reported as 103 % of control, the T/C (dose: 20.0 mg/kg/injection, schedule: Q01DX009 (ip), vehicle: Klucel (hydroxypropylcellulose) (HPC)) is reported as 103 % of control and the T/C (dose: 40.0 mg/kg/injection, schedule: Q01DX009 (ip), vehicle: Klucel (hydroxypropylcellulose) (HPC)) is reported as 94 % of control.

In the case of CC[N+](CC)(CC)CC, the T/C (dose: 0.37 mg/kg/injection, schedule: Q01DX009 (ip), vehicle: saline with Tween-80) is reported as 103 % of control, the T/C (dose: 0.75 mg/kg/injection, schedule: Q01DX009 (ip), vehicle: saline with Tween-80) is reported as 100 % of control and the T/C (dose: 1.5 mg/kg/injection, schedule: Q01DX009 (ip), vehicle: saline with Tween-80) is reported as 112 % of control. For the same compound, the T/C (dose: 3.0 mg/kg/injection, schedule: Q01DX009 (ip), vehicle: saline with Tween-80) was 120 % of control, the T/C [4] was 123 % of control and the T/C (dose: 11.0 mg/kg/injection, schedule: Q01DX009 (ip), vehicle: saline) was 112 % of control. The T/C [5] was 109 % of control, the T/C (dose: 16.5 mg/kg/injection, schedule: Q01DX009 (ip), vehicle: saline) was 108 % of control and the T/C (dose: 25.0 mg/kg/injection, schedule: Q04DX003 (ip), vehicle: saline) was 100 % of control. For the same compound, the T/C (dose: 37.5 mg/kg/injection, schedule: Q01DX009 (ip), vehicle: saline) was 108 % of control, the T/C [6] was 90 % of control and the T/C (dose: 50.0 mg/kg/injection, schedule: Q04DX003 (ip), vehicle: saline) was 100 % of control.

In the case of CC(=O)Nc1ccc2c(Nc3ccc(NS(C)(=O)=O)cc3)c3ccccc3nc2c1, the T/C (dose: 3.8 mg/kg/injection, schedule: Q01DX009 (ip), vehicle: saline sonified) is reported as 112 % of control, the T/C (dose: 7.5 mg/kg/injection, schedule: Q01DX009 (ip), vehicle: saline sonified) is reported as 110 % of control and the T/C (dose: 15.0 mg/kg/injection, schedule: Q01DX009 (ip), vehicle: saline with Tween-80) is reported as 162 % of control. The T/C (dose: 30.0 mg/kg/injection, schedule: Q01DX009 (ip), vehicle: saline sonified) was 164 % of control, the T/C (dose: 30.0 mg/kg/injection, schedule: Q01DX009 (ip), vehicle: saline with Tween-80) was 185 % of control and the T/C (dose: 200.0 mg/kg/injection, schedule: Q01DX001 (ip), vehicle: saline sonified) was 155 % of control. The T/C (dose: 400.0 mg/kg/injection, schedule: Q01DX001 (ip), vehicle: saline sonified) was 194 % of control.

With CC(CN1c2ccccc2Sc2cccnc21)N(C)C (stereo not drawn) the T/C (dose: 3.12 mg/kg/injection, schedule: Q01DX009 (ip), vehicle: saline) was 97 % of control, the T/C [4] was 107 % of control and the T/C [5] was 112 % of control. For the same compound, the T/C (dose: 25.0 mg/kg/injection, schedule: Q01DX009 (ip), vehicle: saline) was 109 % of control and the T/C [6] was 100 % of control.

With C[N+](C)(C)C.N=C=O.N=C=O.N=C=O.N=C=O.[Co+2] the T/C (dose: 12.5 mg/kg/injection, schedule: Q04DX003 (ip), vehicle: saline with Tween-80) was 97 % of control, the T/C (dose: 25.0 mg/kg/injection, schedule: Q04DX003 (ip), vehicle: saline with Tween-80) was 90 % of control and the T/C (dose: 50.0 mg/kg/injection, schedule: Q04DX003 (ip), vehicle: saline with Tween-80) was 92 % of control.

In the case of CN(C)N=Nc1ccnc2c(Br)cccc12, the T/C (dose: 14.4 mg/kg/injection, schedule: Q01DX009 (ip), vehicle: DMSO) is reported as 90 % of control, the T/C (dose: 24.0 mg/kg/injection, schedule: Q01DX009 (ip), vehicle: DMSO) is reported as 97 % of control and the T/C (dose: 40.0 mg/kg/injection, schedule: Q01DX009 (ip), vehicle: DMSO) is reported as 90 % of control. For the same compound, the T/C (dose: 66.7 mg/kg/injection, schedule: Q01DX009 (ip), vehicle: DMSO) was 101 % of control.

With COc1ccc(NC(=O)Oc2ccccc2Cc2ccccc2)cc1 the T/C (dose: 50.0 mg/kg/injection, schedule: Q01DX009 (ip), vehicle: Klucel (hydroxypropylcellulose) (HPC)) was 96 % of control, the T/C [7] was 96 % of control and the T/C [8] was 93 % of control. The T/C (dose: 100.0 mg/kg/injection, schedule: Q04DX003 (ip), vehicle: Klucel (hydroxypropylcellulose) (HPC)) was 96 % of control, the T/C [9] was 100 % of control and the T/C [10] was 93 % of control.

In the case of Nc1n[n+](-c2ccc(Cl)cc2)no1, the T/C (dose: 3.12 mg/kg/injection, schedule: Q01DX009 (ip), vehicle: water) is reported as 102 % of control, the T/C [1] is reported as 107 % of control and the T/C [2] is reported as 109 % of control. The T/C [3] was 117 % of control.

C=CCOc1ccccc1Cl was tested, and the T/C [7] was 122 % of control, the T/C [8] was 100 % of control and the T/C [9] was 107 % of control. For the same compound, the T/C [10] was 119 % of control and the T/C (dose: 400.0 mg/kg/injection, schedule: Q01DX009 (ip), vehicle: Klucel (hydroxypropylcellulose) (HPC)) was 97 % of control.
